From PMC12843137, “Fine-Tuning Side Chain Substitutions: Impacts on the Lipophilicity–Solubility–Permeability Interplay in Macrocyclic Peptides” (Marine Drugs, 2025)
Read-outs that look alike come from different tables or passages of the source.

How the values were obtained:
PANC-1 cells = conditions: CCK-8; cited from earlier work
recombinant human eEF1A1 = biological target: T1, recombinant human eEF1A1 (Homo sapiens, UniProt P68104); test: MicroScale Thermophoresis (MST) binding assay; conditions: for Kd: MST, 50 mM HEPES pH 7.4, 0.05% Tween-20, triplicate, mean ± SD
T1 construct: purchased TMPH-01283
T1 sequence (P68104 1-462): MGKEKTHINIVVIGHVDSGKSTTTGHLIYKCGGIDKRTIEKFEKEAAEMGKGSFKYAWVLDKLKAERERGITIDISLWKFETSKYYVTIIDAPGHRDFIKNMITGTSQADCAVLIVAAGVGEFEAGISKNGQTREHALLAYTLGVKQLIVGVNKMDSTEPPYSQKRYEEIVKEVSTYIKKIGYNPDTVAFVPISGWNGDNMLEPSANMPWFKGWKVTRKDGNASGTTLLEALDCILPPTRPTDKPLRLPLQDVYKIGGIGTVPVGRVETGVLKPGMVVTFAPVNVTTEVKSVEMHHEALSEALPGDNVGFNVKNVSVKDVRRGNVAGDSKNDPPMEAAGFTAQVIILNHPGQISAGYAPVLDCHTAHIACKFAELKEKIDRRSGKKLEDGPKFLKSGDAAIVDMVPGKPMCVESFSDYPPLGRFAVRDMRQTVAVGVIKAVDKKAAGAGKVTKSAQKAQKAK
Excerpt: To investigate whether the loss of cellular activity in the BE derivatives results from diminished binding to the known intracellular target eEF1A1, we assessed direct target engagement using MST. Recombinant human eEF1A1 protein was titrated against the compounds, which were supplied in HEPES buffer (pH 7.4) and diluted as required. Binding interactions were quantified by monitoring changes in thermophoretic mobility. Detailed materials and protein labeling procedures are provided in the Supporting Information.
Compounds were serially diluted (16-point, 2-fold) in assay buffer (50 mM HEPES, pH 7.4, 0.05% Tween-20) as ligands. Labeled eEF1A1 protein (target) was mixed 1:1 with each dilution and incubated at room temperature for 20 min. Samples were loaded into premium capillaries and analyzed on the Monolith X instrument following the manufacturer’s protocol, with infrared laser excitation at 1480 nm to generate a temperature gradient. Thermophoretic mobility was monitored via fluorescence changes before, during, and after laser activation.
Data were analyzed using NanoTemper Analysis software (version 2.3) to fit binding curves and determine dissociation constants (Kd). Experiments were performed in triplicate, and Kd values are reported as mean ± standard deviation.
The Lucifer Yellow fluorescence (to monitor monolayer integrity) signal is measured in a fluorescence plate reader at 485 nm excitation and 530 nm emission.
The leakage of Lucifer Yellow, in unit of percentage (%), can be calculated using the following equation:
%LY leakage = 100×[LY]acceptor/([LY]donor+[LY]acceptor)
Where [LY]acceptor is the fluorescence intensity in the acceptor well (0.3 mL), and [LY]donor is the fluorescence intensity in the donor well (0.1 mL) and expressed as % leakage. The percentage of Lucifer yellow leakage […]
should be less than 1.0%. […]
monolayers will be compared. […]
those in the replicate transwells (CV<30%), the monolayer's Papp data will be considered valid and […]
Supplementary Table S3. The assessment of caco-2 cell monolayer integrity. […]

PATU8988T cells = test: CCK-8 antiproliferative assay, PATU8988T; format: cell-based; conditions: Homo sapiens, PaTu 8988t; CCK-8, 72 h, mean ± SEM (n = 3); read-out: Cell proliferation IC50 PATU8988T
Description: (§1) The inhibitory activities against human pancreatic cancer PANC-1 cells of the synthesized compounds were evaluated by CCK-8 assay.
(§2) Human pancreatic cancer cell lines PANC-1, PATU8988T and BxPC3 were purchased from the Cancer Institute & Hospital of the Chinese Academy of Medical Sciences (Shanghai, China). All three cell lines were cultured in RPMI-DMEM medium containing 10% fetal bovine serum, cultured at a constant temperature of 37 °C in a humidified incubator with 5% CO2.
(§3) Pancreatic cancer cells are seeded into 96-well plates. After a proliferation time of 16 h, different concentrations of compounds are added into the corresponding wells and incubated for 72 h. 10 μL of CCK-8 solution is added into each well and incubated for 1–4 h at 37 °C. Shake the plates and read the OD value of each well at 450 nm on a microplate reader.
(§4) 1. Characterization of biological activity
(§5) Supplementary Figure S1. Cell viability is assessed using the CCK -8 assay following 72 h treatment with the tested compounds in pancreatic cancer cell lines: a) PATU8988T, b) BxPC3.
(§6) Supplementary Table S1. The effects of compounds against two pancreatic cancer cell lines were evaluated using […]
(§7) Cell proliferation IC 50(µM)a
(§8) [a] IC50 va lues of the tested compounds ar e determined in PATU8988T an d BxPC3 cells. […]
(§9) Supplementary Figure S2. Convergence of the PMF calculated from WTM -eABF simulation . […]

BxPC3 cells = test: CCK-8 antiproliferative assay, BxPC3; format: cell-based; conditions: Homo sapiens, BXPC-3, 72 h, CCK-8, 72 h, mean ± SEM (n = 3); read-out: Cell proliferation IC50 BxPC3
Description: as §1, §2, §3, §4, §5, §6, §7, §8, §9

Kd (recombinant human eEF1A1; read-out: Kd)	fold weaker affinity than the parent BE (recombinant human eEF1A1; ratio of MST Kd values)	IC50 (BxPC3 cells)	Kd (recombinant human eEF1A1)	SMILES	IC50 (PANC-1 cells)	IC50 (PATU8988T cells)
				CCCCCCCCCCCCCC1OC(=O)CN(C)C(=O)C=CC(CN2CCN(C)CC2)NC(=O)CNC(=O)C(C)(O)C(=O)C1C (centres unmarked) [BE-NMP]	0.65 ± 0.19 µM	
7.82 ± 0.63 µM	approximately 3.4 fold	> 50 µM		CCCCOc1ccc(-c2ccc(-c3ccc(Cn4cc(CCCCC[C@H]5OC(=O)CN(C)C(=O)/C=C/[C@@H](CN6CCN(C)CC6)NC(=O)CNC(=O)[C@@](C)(O)C(=O)[C@H]5C)nn4)cc3)cc2)cc1 [Compound 29]		> 50 µM
		> 100 µM	no detectable binding	CC1C(=O)C(C)(O)C(=O)NCC(=O)NC(CN2CCN(C)CC2)C=CC(=O)N(C)CC(=O)OC1CCCCc1cn(CCCCCCCCNC(=N)N)nn1 (centres unmarked) [Compound 31]		> 50 µM
